Values quoted from earlier work, collected in patent US20250041228A1, “ORAL FORMULATION OF A PYRIDINONE DERIVATE AND USE THEREOF IN PROPHYLAXIS AND/OR TREATMENT OF INTESTINAL FIBROSIS” (Dr. Falk Pharma GmbH, priority 2021, published 2025).

Biological target: T1, transglutaminase 2 (Homo sapiens, UniProt P21980)
T1 sequence (P21980 1-687): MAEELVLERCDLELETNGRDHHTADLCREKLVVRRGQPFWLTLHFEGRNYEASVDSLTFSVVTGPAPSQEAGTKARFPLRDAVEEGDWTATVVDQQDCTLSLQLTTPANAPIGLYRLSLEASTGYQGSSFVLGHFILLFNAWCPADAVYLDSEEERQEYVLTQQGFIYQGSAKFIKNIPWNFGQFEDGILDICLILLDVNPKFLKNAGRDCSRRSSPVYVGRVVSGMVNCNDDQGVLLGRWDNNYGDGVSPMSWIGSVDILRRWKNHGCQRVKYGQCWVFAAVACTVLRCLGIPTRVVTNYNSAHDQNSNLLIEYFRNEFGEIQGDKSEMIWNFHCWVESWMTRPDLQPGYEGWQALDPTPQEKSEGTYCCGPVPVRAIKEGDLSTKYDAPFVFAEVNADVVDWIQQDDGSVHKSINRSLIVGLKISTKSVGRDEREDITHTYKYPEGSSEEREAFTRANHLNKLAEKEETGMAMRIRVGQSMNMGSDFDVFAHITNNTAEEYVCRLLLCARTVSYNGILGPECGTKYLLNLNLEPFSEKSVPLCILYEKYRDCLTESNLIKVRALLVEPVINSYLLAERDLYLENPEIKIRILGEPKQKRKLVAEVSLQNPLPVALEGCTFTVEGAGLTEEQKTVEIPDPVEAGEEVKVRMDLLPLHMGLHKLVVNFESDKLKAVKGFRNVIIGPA
Details: background statement, no data

inhibitor against transglutaminase 2: effective inhibitor
Structure (SMILES): CCC(CC)CNC(=O)Cn1cccc(NC(=O)[C@H](CC/C=C/C(=O)OC)NC(=O)c2cncn2C)c1=O [Compound 1, (S,E)-methyl-7-(1-(2-(2-ethylbutylamino)-2-oxoethyl)-2-oxo-1,2-dihydro-pyridin-3-ylamino)-6-(1-methyl-1H-imidazole-5-carboxamido)-7-oxohept-2-enoate]
